Laboratory results taken from PubChem BioAssay (NCI).
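Assay format: 96-well plates, 48-hour exposure. The concentration for 50% growth inhibition is given as GI50. The concentration for full growth arrest is given as TGI.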

Columns and labels:
Test in all cases: NCI anticancer screen, dose series, 48 h
T-47D breast = system: T-47D breast
A549 NSCLC = system: A549 NSCLC
CCRF-CEM leukemia = system: CCRF-CEM leukemia
LOX IMVI melanoma = system: LOX IMVI melanoma
NCI/ADR-RES ovarian = system: NCI/ADR-RES ovarian
K-562 leukemia = system: K-562 leukemia
SF-268 CNS = system: SF-268 CNS
SF-295 CNS = system: SF-295 CNS
DU-145 prostate = system: DU-145 prostate
HT29 colon = system: HT29 colon
NCI-H226 lung = system: NCI-H226 lung
PC-3 prostate = system: PC-3 prostate
HL-60(TB) leukemia = system: HL-60(TB) leukemia
IGROV1 ovarian = system: IGROV1 ovarian
HS 578T breast = system: HS 578T breast
HOP-62 NSCLC = system: HOP-62 NSCLC
SN12C renal = system: SN12C renal
NCI-H460 lung = system: NCI-H460 lung
UO-31 renal = system: UO-31 renal
MDA-MB-231 breast = system: MDA-MB-231 breast
NCI-H23 lung = system: NCI-H23 lung
M14 melanoma = system: M14 melanoma
UACC-257 melanoma = system: UACC-257 melanoma
SK-OV-3 ovarian = system: SK-OV-3 ovarian
SW-620 colon = system: SW-620 colon
A498 renal = system: A498 renal
OVCAR-4 ovarian = system: OVCAR-4 ovarian
CAKI-1 renal = system: CAKI-1 renal
COLO 205 colon = system: COLO 205 colon

Work on CS(=O)(=O)Nc1cc(-c2ccc3ncnc(Nc4ccc5c(cnn5Cc5cccc(F)c5)c4)c3c2)cnc1Cl yielded a GI50 (T-47D breast) of 0.101 µM, a TGI (T-47D breast) of 0.922 µM and a GI50 (A549 NSCLC) of 1.56 µM. The TGI (A549 NSCLC) was 5.79 µM, the GI50 (CCRF-CEM leukemia) was 0.301 µM and the TGI (CCRF-CEM leukemia) was > 100 µM. For the same molecule, the GI50 (LOX IMVI melanoma) was 0.4 µM, the TGI (LOX IMVI melanoma) was 1.9 µM and the GI50 (NCI/ADR-RES ovarian) was 5.8 µM. The TGI (NCI/ADR-RES ovarian) was > 78.4 µM, the GI50 (K-562 leukemia) was 0.913 µM and the TGI (K-562 leukemia) was > 100 µM. For the same molecule, the GI50 (SF-268 CNS) was 0.256 µM, the TGI (SF-268 CNS) was 2.07 µM and the GI50 (SF-295 CNS) was 0.811 µM. It also gave a TGI (SF-295 CNS) of 3 µM, a GI50 (DU-145 prostate) of 0.756 µM and a TGI (DU-145 prostate) of 11.2 µM. For the same molecule, the GI50 (HT29 colon) was 0.597 µM, the TGI (HT29 colon) was 5.42 µM and the GI50 (NCI-H226 lung) was 1.11 µM. The TGI (NCI-H226 lung) was 4.84 µM, the GI50 (PC-3 prostate) was 0.411 µM and the TGI (PC-3 prostate) was 2.6 µM. For the same molecule, the GI50 (HL-60(TB) leukemia) was 0.283 µM, the TGI (HL-60(TB) leukemia) was 1.98 µM and the GI50 (IGROV1 ovarian) was 0.17 µM. For the same molecule, the TGI (IGROV1 ovarian) was 0.733 µM, the GI50 (HS 578T breast) was 0.111 µM and the TGI (HS 578T breast) was 0.878 µM. The GI50 (HOP-62 NSCLC) was 0.452 µM, the TGI (HOP-62 NSCLC) was 7.95 µM and the GI50 (SN12C renal) was 0.421 µM. For the same molecule, the TGI (SN12C renal) was 18.9 µM, the GI50 (NCI-H460 lung) was 0.929 µM and the TGI (NCI-H460 lung) was 9.45 µM. The GI50 (UO-31 renal) was 1.04 µM, the TGI (UO-31 renal) was 3.96 µM and the GI50 (MDA-MB-231 breast) was 0.586 µM. For the same molecule, the TGI (MDA-MB-231 breast) was 13.2 µM, the GI50 (NCI-H23 lung) was 0.648 µM and the TGI (NCI-H23 lung) was 6.28 µM. It also gave a GI50 (M14 melanoma) of 0.745 µM, a TGI (M14 melanoma) of 2.5 µM and a GI50 (UACC-257 melanoma) of 0.812 µM. The TGI (UACC-257 melanoma) was 4.47 µM, the GI50 (SK-OV-3 ovarian) was 0.376 µM and the TGI (SK-OV-3 ovarian) was 2.27 µM. It also gave a GI50 (SW-620 colon) of 0.676 µM, a TGI (SW-620 colon) of 6.61 µM and a GI50 (A498 renal) of 0.0717 µM. It also gave a TGI (A498 renal) of 0.535 µM, a GI50 (OVCAR-4 ovarian) of 1.38 µM and a TGI (OVCAR-4 ovarian) of 6.51 µM. It also gave a GI50 (CAKI-1 renal) of 0.359 µM, a TGI (CAKI-1 renal) of 2.48 µM and a GI50 (COLO 205 colon) of 0.759 µM. The TGI (COLO 205 colon) was 2.96 µM.
